This is an account of results in ChEMBL document CHEMBL1201862, “PubChem BioAssay data set” (2004).

Structures are written as SMILES.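 Following 48 hours of exposure in 96-well plates, responses at five concentrations were used to interpolate endpoints linearly. Here, GI50 denotes the concentration required for 50% inhibition of growth.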 Calls of active or inactive are those of the source. Cut-off read from the data, not from the text of the source: active = GI50 up to about 1.1 µM and inactive = higher.

Some test systems named below: RXF 393; HT-29; SF-295; OVCAR-5; Malme-3M; SNB-19; UO-31; IGROV-1; HCT-15; KM12; OVCAR-4; NCI-H226; SF-268; M14; EKVX; ACHN; UACC-62.
Common to all, as to assay: NCI anticancer screen, dose series, 48 h

Turning to `COc1cc2cc(OC(C)=O)c3cc4c(cc3c2c(OC)c1OC)OCO4`, the GI50 with RXF 393, in the assay with HT-29, in the assay on SF-295, in the assay with OVCAR-5, with Malme-3M and in the assay on SNB-19 was > 100 µM (inactive) each time. The GI50 was > 100 µM (inactive) in the assay on UO-31; > 100 µM (inactive) in the assay on IGROV-1; greater than 100 µM in the assay on HCT-15; > 100 µM (inactive) with KM12; > 100 µM (inactive) in the assay with OVCAR-4; > 100 µM (inactive) with NCI-H226. Also, the GI50 in the assay with SF-268, with M14, with EKVX and with ACHN was > 100 µM (inactive) each time.

For `Cc1cc(Cl)ccc1NC(=O)CC1SC(N)=NC1=O` (stereo not drawn), the GI50 in the assay with RXF 393, with HT-29, with SF-295, in the assay on OVCAR-5, with Malme-3M and in the assay on SNB-19 was > 100 µM (inactive) each time. For the same compound, the GI50 in the assay with UO-31 was > 100 µM (inactive); in the assay with IGROV-1 it was > 100 µM (inactive); with HCT-15 it was greater than 100 µM; with UACC-62, > 100 µM (inactive); in the assay on KM12 it was > 100 µM (inactive); in the assay on OVCAR-4, > 100 µM (inactive). Also, the GI50 in the assay on NCI-H226, in the assay on SF-268, in the assay with M14, in the assay on EKVX and in the assay on ACHN was > 100 µM (inactive) each time.

For the compound `O=C1[C@@H](c2ccc(Cl)cc2)[C@H]2CC=C[C@H]2N1O`, the GI50 was 14.3 µM (inactive) in the assay with RXF 393; > 100 µM (inactive) in the assay with HT-29; > 100 µM (inactive) in the assay on SF-295; > 100 µM (inactive) with Malme-3M; > 100 µM (inactive) in the assay with SNB-19; 89.7 µM (inactive) in the assay on UO-31. For the same compound, the GI50 in the assay on IGROV-1 is > 100 µM (inactive); in the assay on HCT-15, 91.4 µM; in the assay with UACC-62, > 100 µM (inactive); in the assay on KM12, > 100 µM (inactive); in the assay with NCI-H226, > 100 µM (inactive); in the assay on SF-268, > 100 µM (inactive). Further, the GI50 with M14 and in the assay on EKVX was > 100 µM (inactive) in each case.

Take `Cc1ccc(C2=C(c3ccccc3)C(O)(c3ccccc3)C(c3ccccc3)=C2c2ccc(C)cc2)cc1`: the GI50 in the assay with RXF 393 was > 100 µM (inactive); in the assay on HT-29 it was 46.2 µM (inactive); in the assay on SF-295, 35.6 µM (inactive); in the assay on OVCAR-5 it was > 100 µM (inactive); in the assay on Malme-3M, > 100 µM (inactive); with SNB-19, > 100 µM (inactive). For the same compound, the GI50 with UO-31 is 78.7 µM (inactive); in the assay with IGROV-1 it was > 100 µM (inactive); in the assay with HCT-15, 35.2 µM; with KM12, > 100 µM (inactive); in the assay on NCI-H226 it was > 100 µM (inactive); in the assay on SF-268 it was > 100 µM (inactive). The GI50 is 83.8 µM (inactive) with M14, 64 µM (inactive) in the assay with EKVX and > 100 µM (inactive) with ACHN.

On to `CN(C)c1ccc(Cc2cc(C(C)(C)C)cc(C(C)(C)C)c2O)cc1`, for which the GI50 in the assay on RXF 393 was 16.4 µM (inactive); in the assay with HT-29 it was 16.1 µM (inactive); in the assay with SF-295, 18.9 µM (inactive); with OVCAR-5 it was 6.27 µM (inactive); in the assay on Malme-3M, 22.5 µM (inactive); with SNB-19 it was 21.6 µM (inactive). Further, the GI50 is 17.2 µM (inactive) with UO-31; 18 µM (inactive) with IGROV-1; 15.8 µM in the assay on HCT-15; 14.7 µM (inactive) with UACC-62; 12.2 µM (inactive) in the assay with KM12; 21.3 µM (inactive) with OVCAR-4. The GI50 in the assay on SF-268 is 17.3 µM (inactive); in the assay on M14, 18.1 µM (inactive); in the assay on EKVX, 22.1 µM (inactive); with ACHN, 16.6 µM (inactive).
